Consider two compounds from publication PMC3880221 (Chembiochem : a European journal of chemical biology, 2011).

One test concerns the target NQO1 (QR1) (Homo sapiens, UniProt P15559). Description: recombinant human NQO1 activity after treatment with […] compound ± NADH. The format is biochemical.
The target of test [1] is T1, NRH:quinone oxidoreductase 2 (NQO2, QR2) (Homo sapiens, UniProt P16083).
T1 sequence (P16083 1-231): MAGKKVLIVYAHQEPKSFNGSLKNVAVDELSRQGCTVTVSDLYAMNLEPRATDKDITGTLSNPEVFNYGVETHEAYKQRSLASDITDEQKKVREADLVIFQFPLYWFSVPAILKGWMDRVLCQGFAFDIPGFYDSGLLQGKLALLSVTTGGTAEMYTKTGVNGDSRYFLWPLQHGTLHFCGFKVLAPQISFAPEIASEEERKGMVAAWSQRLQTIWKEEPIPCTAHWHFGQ
Description: co-crystal structure. The format is binding.

Sequence of NQO1 (QR1) (P15559 whole entry): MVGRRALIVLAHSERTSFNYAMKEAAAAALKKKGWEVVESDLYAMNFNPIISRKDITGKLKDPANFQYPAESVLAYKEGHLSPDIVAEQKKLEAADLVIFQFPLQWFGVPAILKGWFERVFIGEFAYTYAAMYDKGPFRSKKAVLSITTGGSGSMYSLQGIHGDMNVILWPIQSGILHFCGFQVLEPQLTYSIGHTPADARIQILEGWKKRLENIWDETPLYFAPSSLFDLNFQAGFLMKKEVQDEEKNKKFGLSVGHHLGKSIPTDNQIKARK

Regarding `COC1=CC(=O)c2c(c(COc3ccc([N+](=O)[O-])cc3)c(C)n2C)C1=O` [1a, 5-methoxy-1,2-dimethyl-3-(4-nitrophenoxymethyl)indole-4,7-dione], the partition ratio on NQO1 (QR1) is on record as 3.5 (partition ratio). Turning to `Cc1c(COc2ccc([N+](=O)[O-])cc2)c2c(n1C)C(=O)C=C(NCCCCN)C2=O` [2c, 5-(4-Aminobutyl)amino-1,2-dimethyl-3-(4-nitrophenoxy)methylindole-4,7-dione], in test [1], the Kd entry was “Kd1 = 71; Kd2 = 19 μM”.
